Test system: plasma NO
Test: Plasma NO release (NO/ozone chemiluminescence) after ischemia or ischemia-reperfusion
Assay type: in vivo, rats
Settings: for NO (µmol/L) release, Ischemic / NO (µmol/L) release, Reperfused: Operated
Description: Myocardial ischemia was performed by a temporary tightening of the silk ligature around the left main coronary artery. Reperfusion was achieved by releasing the tension applied to the ligature (operated groups). Sham operated animals underwent all surgical procedures, apart from the fact that the silk, passing around the left coronary artery, was not tied (sham groups). Animals were infused with a bolus of THP (3.5x10^-7, 3.5x10^-6, 3.5x10^-5 g/kg), L-NAME (N^∞-nitro-L-arginine methyl ester; 1x10^-3 g/kg) or vehicle (dimethyl sulfoxide/ NaCl 0.9%, 1:10^3; v/v) from a jugular vein 15 minutes before coronary occlusion. The coronary artery was occluded for 30 minutes or 5 minutes followed by 30 minutes reperfusion and with the animals then divided randomly in the following groups: (1) sham + vehicle; (2) sham + THP (3.5x10^-5g/kg); (3) operated + vehicle; (4) operated + THP (3.5x10^-7 g/kg); (5) operated + THP (3.5x10^-6 g/kg); (6) operated + THP (3.5x10^-5 g/kg); (7) operated + L-NAME (1x10^-3 g/kg) + THP (3.5x10^-5 g/kg). Before and during the ischemia or reperfusion period, heart rate (HR), blood pressure (BP) and ECG changes were recorded. Ventricular ectopic activity was evaluated according to the diagnostic criteria advocated in the Lambeth Convention. The incidence and duration of ventricular tachyarrhythmias, including ventricular tachycardia (VT) and ventricular fibrillation (VF), in surviving animals was determined. The Mann-Whitney rank-sum test was used to analyze the differences in the duration of VT and VF between vehicle and drug treated groups. The BP and HR changes between vehicle and drug treated rats in the arrhythmia study were analyzed by ANOVA (analysis of variance) followed by Bonferroni's test. The difference in the percentage incidence of VT, VF and mortality rate was analyzed with a Chi-square test. Table 2 Effect of THP on ischemia-induced arrhythmias in the in vivo anesthetized rat
Cellular damage was evaluated by measuring the plasma LDH. Arterial blood samples were drawn from the carotid catheter at the end of ischemia or ischemia-reperfusion, collected in heparinized tubes. The blood was kept at 4°C until it was centrifuged at 2000 xg for 15 minutes. The plasma was recovered and aliquots were used for determination of LDH activity with a commercial kit from Sigma. The deproteinized plasma samples were frozen and kept until analysis. NO was measured by the NO/ozone chemiluminescence technique described in Yanu F. et al., (1997) Clin. Chem. 43:657-662. The difference in plasma NO and LDH were analyzed statistically using unpaired Student's t-test. Table 5 Effects of THP on LDH (U/L) release
Nitric oxide (NO) release is measured by the presence of nitrite (NO2^-) and nitrate (NO3^-) in the plasma from an animal with 30 minutes ischemia or 5 minutes followed by 30 minutes reperfusion. In sham animals, NO is measured to be 9.6±2.3 and 7.6±0.9µmol/L without and with THP pretreatment, respectively. In the operated animals, THP exerts a dramatically increase of plasma NO; at a dose of 3.5x10^-6 g/kg, there are 2- and 3.5-fold increases compared to that of the untreated (vehicle) ischemic or ischemic-reperfused animals, respectively (Table 6).

**Q.** With `COc1cc2c(cc1OC)-c1c(O)c(OC)cc3c1C(C2)N(C)CC3` (single isomer, unassigned; (+)) [THP, (+)-Thaliporphine] as the compound, how does the “increase of plasma NO compared to untreated (vehicle) ischemic animals” value (3.5x10^-6 g/kg, ischemic) read?
**A.** Its value is 2 fold.

**Q.** What about the “increase of plasma NO compared to untreated (vehicle) ischemic-reperfused animals” value (3.5x10^-6 g/kg, ischemic-reperfused) of the same compound?
**A.** Its value is 3.5 fold.

**Q.** And the “NO (µmol/L) release, Ischemic” value (THP 3.5x10^-5 g/kg)?
**A.** Its value is 19.1 ± 5.5 µmol/L.

**Q.** What about the “NO (µmol/L) release, Reperfused” value (THP 3.5x10^-5 g/kg) of the same compound?
**A.** Its value is 30.4 ± 1.9 µmol/L.

**Q.** And the “NO (µmol/L) release, Ischemic” value (THP 3.5x10^-6 g/kg)?
**A.** Its value is 19.4 ± 4.7 µmol/L.

**Q.** What about the “NO (µmol/L) release, Reperfused” value (THP 3.5x10^-6 g/kg) of the same compound?
**A.** The value was 28.4 ± 4.3 µmol/L.

**Q.** What about the “NO (µmol/L) release, Ischemic” value (THP 3.5x10^-7 g/kg) of the same compound?
**A.** Its value is 6.6 ± 0.6 µmol/L.

**Q.** And the “NO (µmol/L) release, Reperfused” value (THP 3.5x10^-7 g/kg)?
**A.** The value was 8.0 ± 1.7 µmol/L.

**Q.** What about the “NO (µmol/L) release, Non-ischemic” value (Sham-operated, THP 3.5x10^-5 g/kg) of the same compound?
**A.** Its value is 7.6 ± 0.9 µmol/L.

From patent EP1311486B1, “USES OF THALIPORPHINE OR ITS DERIVATIVES IN TREATMENT OF CARDIAC DISEASES AND PREPARATION OF SAME” (Lotus Pharmaceutical Co., Ltd., priority 2000, dated 2002)
